These results are taken from ChEMBL document CHEMBL1201862, “PubChem BioAssay data set” (2004).

Molecules are shown by their SMILES. Activity calls are given as the source filed them.

The subject of one assay is Escherichia coli. The experiment in a line: microbe, parasite or virus in culture.
The target of assay [1] is T1, Ubiquitin-conjugating enzyme E2 N (Homo sapiens, UniProt P61088).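 Further: Dose-response confirmation in a TR-FRET assay detecting UBC13-driven polyubiquitin chain formation, inhibition measured.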
T1 sequence (P61088 whole entry): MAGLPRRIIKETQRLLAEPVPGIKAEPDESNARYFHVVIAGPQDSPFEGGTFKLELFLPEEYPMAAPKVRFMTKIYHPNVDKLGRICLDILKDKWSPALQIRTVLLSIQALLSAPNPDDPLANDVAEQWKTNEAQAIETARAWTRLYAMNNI
In kind it is functional.

Assay [2] deals with T2, DNA repair protein RAD52 homolog (Homo sapiens, UniProt P43351).
T2 sequence (P43351 whole entry): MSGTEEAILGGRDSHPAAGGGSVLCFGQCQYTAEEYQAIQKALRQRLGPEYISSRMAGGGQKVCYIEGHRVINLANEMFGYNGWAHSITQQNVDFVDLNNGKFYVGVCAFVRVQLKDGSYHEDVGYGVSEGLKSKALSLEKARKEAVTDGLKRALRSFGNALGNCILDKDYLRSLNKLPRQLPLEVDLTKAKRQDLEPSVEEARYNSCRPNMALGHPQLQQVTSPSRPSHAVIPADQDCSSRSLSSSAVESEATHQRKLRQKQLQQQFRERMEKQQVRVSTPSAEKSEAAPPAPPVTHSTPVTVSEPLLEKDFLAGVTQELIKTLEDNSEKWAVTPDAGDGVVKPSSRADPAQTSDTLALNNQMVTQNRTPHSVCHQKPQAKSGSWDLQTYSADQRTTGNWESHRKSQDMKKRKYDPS
It counts as functional, biochemical.

The subject of assay [3] is BJ. The experiment in a line: BJ-TERT-LT-ST fibroblast viability loss – cell-based, RAS-independent, luminescence, dose response (AID 1935).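 Further: BJ fibroblasts immortalized with TERT plus LT and ST oncogenes.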 In kind it is functional. Conditions: Homo sapiens.
Another assay relates to INS1. The experiment in a line: INS-1E survival protection against cytokine death – cell-based, luminescence, retest, dose response (AID 449756).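 Further: cell death triggered by IL-1 beta plus TNF-alpha plus IFN-gamma mixture; protective hits raise ATP signal compared with cytokine alone wells.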 Conditions: Rattus norvegicus. In kind it is functional.
The subject of assay [4] is BJ. The assay can be described thus: growth inhibition of engineered Ras-driven BJ cells – cell-based, alamar blue fluorescence, cherrypicked samples, dose response (AID 2631).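 Further: confirmatory dose-response assay in RAS-dependent BJ fibroblasts engineered with TERT, LT and ST, with cytotoxicity read by fluorescence.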 It counts as functional. The settings on record: Homo sapiens. For orientation: The colour change of resazurin is a common sign of viable cells or microbes.
A short description of assay [5]: DRD fibroblast viability loss – cell-based, non-viral oncogenic, luminescence, dose response (AID 1934). It counts as functional. The settings on record: Homo sapiens.
The test system of assay [6] is BJ. The assay can be described thus: cells. It counts as functional, cell-based. The settings on record: Homo sapiens.
Assay [7] deals with BJ. The experiment in a line: BJ-TERT fibroblast viability loss – cell-based, RAS-independent, luminescence, dose response (AID 1933). In kind it is functional. The settings on record: Homo sapiens.
The test system of another assay is Vero. The assay can be described thus: viability of Vero cells under compound – cytotoxicity control for flavivirus capping enzyme inhibitors (AID 588742). The settings on record: Chlorocebus sabaeus. In kind it is functional.
Another assay concerns the target Mu-type opioid receptor (Homo sapiens, UniProt P35372). The experiment in a line: Counterscreen for agonists of heterodimerization of the mu 1 (OPRM1) and delta 1 (OPRD1) opioid receptors: Luminescence-based cell-based high throughput dose response assay to identify agonists of OPRM1 homodimerization. It counts as functional.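 Further: U2OS cells expressing OPRM1 and beta-arrestin as split beta-galactosidase partners.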
Assay [8] deals with Delta-type opioid receptor (Homo sapiens, UniProt P41143). The experiment in a line: Counterscreen for agonists of heterodimerization of the mu 1 (OPRM1) and delta 1 (OPRD1) opioid receptors: Luminescence-based cell-based high throughput dose response assay to identify agonists of OPRD1 homodimerization. [Related pubchem assays (depositor defined):AID504326, AID504355, AID504692, AID504904, AID504905]. It counts as functional. In general terms: Counterscreens check selectivity or assay interference.

For assay [9], the target named is 5-hydroxytryptamine receptor 5A (Homo sapiens, UniProt P47898). The assay can be described thus: Counterscreen for agonists of OPRM1-OPRD1 heterodimerization: luminescence-based cell-based high throughput dose response assay to identify agonists of 5-hydroxytryptamine (serotonin) 5A receptor (HTR5A). [Related pubchem assays (depositor defined):AID504326, AID504355, AID504692, AID504904, AID504905]. It counts as functional.

Assay [10] concerns the target T3, RNA-binding protein pos-1 (Caenorhabditis elegans, UniProt G5EF15).
T3 sequence (G5EF15 whole entry): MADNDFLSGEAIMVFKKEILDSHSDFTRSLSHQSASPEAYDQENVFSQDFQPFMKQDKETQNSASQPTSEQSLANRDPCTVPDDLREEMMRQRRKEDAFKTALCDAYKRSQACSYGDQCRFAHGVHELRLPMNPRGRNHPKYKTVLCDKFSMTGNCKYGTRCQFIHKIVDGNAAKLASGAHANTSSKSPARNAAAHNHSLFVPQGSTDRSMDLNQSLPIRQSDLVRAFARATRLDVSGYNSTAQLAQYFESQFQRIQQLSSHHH
The experiment in a line: disruptors of C. elegans POS-1 RNA interaction – biochemical, fluorescence polarization, dose response (AID 1964).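 Further: purified POS-1 fused to maltose binding protein made in E. coli; potency of compounds blocking POS-1 binding to fluorescent RNA.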 A general note: Fluorescence polarisation rises when a labelled molecule tumbles more slowly, as on binding a larger partner.

The target of assay [11] is T4, Endoribonuclease toxin MazF (Escherichia coli K-12, UniProt P0AE70).
T4 sequence (P0AE70 whole entry): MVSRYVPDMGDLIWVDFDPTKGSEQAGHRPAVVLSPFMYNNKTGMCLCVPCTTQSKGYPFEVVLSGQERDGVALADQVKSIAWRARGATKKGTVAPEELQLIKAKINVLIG
The experiment in a line: substrate-only fluorescence increase artefacts – biochemical, single-stranded RNase substrate, counter-screen for MazEF activator project, dose response (AID 588502). It counts as functional.

The target of assay [12] is T4, Endoribonuclease toxin MazF. The assay can be described thus: activation of MazEF endoribonuclease cleavage – biochemical, fluorescence, single-stranded RNA substrate, uHTS hits, dose response (AID 588481). It counts as functional.
Assay [13] concerns the target T5, Zinc finger protein mex-5 (Caenorhabditis elegans, UniProt Q9XUB2).
T5 sequence (Q9XUB2 whole entry): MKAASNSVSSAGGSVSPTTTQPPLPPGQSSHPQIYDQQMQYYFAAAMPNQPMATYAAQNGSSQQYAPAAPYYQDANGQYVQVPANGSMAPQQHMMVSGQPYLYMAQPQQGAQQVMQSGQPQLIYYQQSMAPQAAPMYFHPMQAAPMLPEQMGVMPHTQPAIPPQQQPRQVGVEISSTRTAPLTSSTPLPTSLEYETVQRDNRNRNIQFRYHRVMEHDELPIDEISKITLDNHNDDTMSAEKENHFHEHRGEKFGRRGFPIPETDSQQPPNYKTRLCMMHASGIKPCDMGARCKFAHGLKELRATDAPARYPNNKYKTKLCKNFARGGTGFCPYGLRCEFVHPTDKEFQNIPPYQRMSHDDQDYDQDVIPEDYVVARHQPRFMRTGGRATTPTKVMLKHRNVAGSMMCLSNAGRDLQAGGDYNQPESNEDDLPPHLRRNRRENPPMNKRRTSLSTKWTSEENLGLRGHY
The assay can be described thus: potency of MEX-5 RNA-binding blockers – biochemical, C. elegans, fluorescence polarization, dose response (AID 1960).

The target in a further assay is T6, Protein RecA (Mycobacterium tuberculosis, UniProt P9WHJ3).
T6 sequence (P9WHJ3 whole entry): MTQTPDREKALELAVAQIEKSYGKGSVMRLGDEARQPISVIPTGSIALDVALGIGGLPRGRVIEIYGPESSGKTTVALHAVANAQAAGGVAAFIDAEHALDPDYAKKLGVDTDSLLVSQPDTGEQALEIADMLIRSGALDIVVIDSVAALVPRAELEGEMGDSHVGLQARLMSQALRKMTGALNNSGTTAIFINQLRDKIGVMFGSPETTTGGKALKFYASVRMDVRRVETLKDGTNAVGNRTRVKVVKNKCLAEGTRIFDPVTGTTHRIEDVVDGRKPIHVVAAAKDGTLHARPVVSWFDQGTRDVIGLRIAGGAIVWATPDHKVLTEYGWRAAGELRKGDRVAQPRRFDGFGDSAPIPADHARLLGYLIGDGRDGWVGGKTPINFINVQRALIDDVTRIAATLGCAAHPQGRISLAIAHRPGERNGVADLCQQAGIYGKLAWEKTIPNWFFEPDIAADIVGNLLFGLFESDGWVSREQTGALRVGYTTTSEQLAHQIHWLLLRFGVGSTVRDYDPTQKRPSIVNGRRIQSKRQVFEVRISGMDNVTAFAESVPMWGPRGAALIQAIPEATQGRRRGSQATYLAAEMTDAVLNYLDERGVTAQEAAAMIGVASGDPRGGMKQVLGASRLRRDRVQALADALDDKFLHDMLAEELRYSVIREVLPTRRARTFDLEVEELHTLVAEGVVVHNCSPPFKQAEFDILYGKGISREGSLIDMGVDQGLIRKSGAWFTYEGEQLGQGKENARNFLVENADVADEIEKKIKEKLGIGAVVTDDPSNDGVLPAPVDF
The experiment in a line: Fluorescence Cell-Free Homogeneous Dose Retest to Identify Inhibitors of RecA-Intein Splicing Activity. [Related pubchem assays (depositor defined):AID2097, AID2223, AID489010, AID492950]. It counts as functional.

In assay [14] the target is T7, Replicative DNA helicase DnaB (Mycobacterium tuberculosis, UniProt P9WMR3).
T7 sequence (P9WMR3 whole entry): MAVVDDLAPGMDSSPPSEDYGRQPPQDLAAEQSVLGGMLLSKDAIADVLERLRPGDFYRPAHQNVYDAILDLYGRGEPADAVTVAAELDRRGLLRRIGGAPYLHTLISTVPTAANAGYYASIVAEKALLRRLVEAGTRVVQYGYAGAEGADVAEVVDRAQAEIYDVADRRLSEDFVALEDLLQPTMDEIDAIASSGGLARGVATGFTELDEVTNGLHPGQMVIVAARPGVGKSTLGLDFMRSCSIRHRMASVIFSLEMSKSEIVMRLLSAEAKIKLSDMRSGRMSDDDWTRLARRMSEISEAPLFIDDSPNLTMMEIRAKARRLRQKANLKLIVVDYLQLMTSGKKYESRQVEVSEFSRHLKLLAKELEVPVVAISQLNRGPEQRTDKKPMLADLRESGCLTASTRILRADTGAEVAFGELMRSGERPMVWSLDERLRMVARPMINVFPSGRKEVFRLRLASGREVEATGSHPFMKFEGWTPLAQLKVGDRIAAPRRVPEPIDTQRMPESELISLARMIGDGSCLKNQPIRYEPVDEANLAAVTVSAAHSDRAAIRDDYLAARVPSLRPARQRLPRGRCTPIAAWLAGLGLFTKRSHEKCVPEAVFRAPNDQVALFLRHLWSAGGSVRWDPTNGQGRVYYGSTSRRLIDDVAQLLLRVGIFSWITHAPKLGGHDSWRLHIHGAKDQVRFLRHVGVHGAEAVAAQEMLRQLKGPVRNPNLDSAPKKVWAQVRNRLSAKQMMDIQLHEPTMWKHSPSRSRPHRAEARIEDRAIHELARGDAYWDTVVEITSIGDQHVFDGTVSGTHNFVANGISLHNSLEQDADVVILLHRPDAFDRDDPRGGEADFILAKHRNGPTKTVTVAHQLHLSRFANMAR
The experiment in a line: DnaB intein splicing inhibitors, dose response, biochemical, cell-free fluorescence (AID 449749). It counts as functional.

Assay [15] in a line: NIH-3T3 fibroblast cytotoxicity, dose response, cytotoxicity control, cell-based, fluorescence, Alamar Blue, secondary assay (AID 2327).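 Further: NIH-3T3 mouse fibroblasts cultured with fluconazole at 8 µg/mL.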 In kind it is functional.
Assay [16] in a line: fluconazole-exposed Candida albicans growth modulators – fluorescence, retest, confirmation (AID 2467). It counts as functional, cell-based.

Mu-type opioid receptor, sequence (P35372 whole entry): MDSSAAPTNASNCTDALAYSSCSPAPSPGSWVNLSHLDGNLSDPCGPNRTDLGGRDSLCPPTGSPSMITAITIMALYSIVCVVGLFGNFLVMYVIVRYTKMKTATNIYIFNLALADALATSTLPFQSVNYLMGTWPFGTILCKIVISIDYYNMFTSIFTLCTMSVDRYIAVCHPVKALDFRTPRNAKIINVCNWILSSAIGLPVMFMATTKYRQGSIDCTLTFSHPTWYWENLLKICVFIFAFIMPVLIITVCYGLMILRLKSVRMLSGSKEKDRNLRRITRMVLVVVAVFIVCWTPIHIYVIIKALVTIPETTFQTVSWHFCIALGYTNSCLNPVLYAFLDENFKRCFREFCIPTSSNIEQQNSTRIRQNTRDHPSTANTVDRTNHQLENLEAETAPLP
Delta-type opioid receptor, sequence (P41143 whole entry): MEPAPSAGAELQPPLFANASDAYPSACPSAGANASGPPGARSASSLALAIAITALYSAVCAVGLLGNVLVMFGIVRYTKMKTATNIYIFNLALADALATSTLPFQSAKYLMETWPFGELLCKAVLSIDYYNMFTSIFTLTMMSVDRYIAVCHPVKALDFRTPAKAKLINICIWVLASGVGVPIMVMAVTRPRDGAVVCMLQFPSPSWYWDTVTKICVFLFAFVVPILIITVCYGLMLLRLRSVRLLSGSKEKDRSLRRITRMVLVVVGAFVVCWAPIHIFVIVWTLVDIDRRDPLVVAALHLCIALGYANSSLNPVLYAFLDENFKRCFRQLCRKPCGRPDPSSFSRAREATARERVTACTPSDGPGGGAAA
5-hydroxytryptamine receptor 5A, sequence (P47898 whole entry): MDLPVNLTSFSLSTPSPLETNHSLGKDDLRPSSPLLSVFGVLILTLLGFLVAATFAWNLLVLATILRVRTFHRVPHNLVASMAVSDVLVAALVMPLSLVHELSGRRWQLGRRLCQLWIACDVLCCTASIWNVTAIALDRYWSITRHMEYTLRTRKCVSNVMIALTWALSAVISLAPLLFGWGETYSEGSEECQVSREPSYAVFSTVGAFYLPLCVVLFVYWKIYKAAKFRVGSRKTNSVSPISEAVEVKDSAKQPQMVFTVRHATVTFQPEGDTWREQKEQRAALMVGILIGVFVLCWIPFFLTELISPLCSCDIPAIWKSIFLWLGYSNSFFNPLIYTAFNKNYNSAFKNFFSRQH

Usually AC50 stands for the concentration giving half of the maximal activity seen. Regarding `CC(C)OC(=O)c1nn2c(C(F)(F)F)cc(-c3ccco3)nc2c1Cl`, the AC50 in the assay with Escherichia coli is 43.9 µM (active).

As a reminder, the IC50 is the concentration that gives 50% inhibition. For orientation: EC50 means the concentration that produces a half-maximal response. With `COc1ccc(C2c3ccc4ccccc4c3Oc3ncn(CCCN(C)C)c(=N)c32)cc1` (stereo not drawn), in [1], the IC50 was > 20 µM (inactive). Besides, the figures for the concentration at half-maximal activity (AC50) (in [2]; in the assay with INS1) were 2.33 µM (active) and 7.32 µM (active), respectively. In addition, the EC50 in the assay with BJ [3] was 4.18 µM (active); with BJ [4], 2.86 µM (inconclusive); in [5], 4.43 µM (active); in the assay with BJ [6] it was 7.71 µM (active); in the assay with BJ [7], 5.07 µM (inconclusive).

What is called CC50 is the concentration that lowers cell viability or growth by half. Turning to `CCCN1C(=O)/C(=C\C=C2/C=CN(CC)c3ccccc32)SC1=S`, the half-maximal cytotoxic concentration (CC50) in the assay with Vero is > 40 µM (active).

As for `C=CCNC(=O)c1ccccc1NC(=O)Nc1ccccc1`, the AC50 in the assay on Escherichia coli was 44.4 µM (active).

In the case of `O=C(Nc1ccc(F)c(Cl)c1)c1cccnc1`, in the assay with Escherichia coli, the AC50 is 61.5 µM (active).

Consider `O=S(=O)(NC1CC1)c1ccc(S(=O)(=O)N2CCCC3(CCCCC3)C2)cc1`, for which the EC50 (at Mu-type opioid receptor; in [8]; in assay [9]) was > 92.5 µM (inactive) in each case.

On to `COc1ccc(NC(=O)c2sc3nc(-c4cccnc4)ccc3c2N)cc1OC`, for which the EC50 in [10] is 115 µM (inconclusive); in assay [11], 54.5 µM (inactive); in assay [12], > 99 µM (inactive); in [13], > 300 µM (inconclusive).

`CCSc1cc(C2C(C#N)=C(N)Oc3[nH]nc(C)c32)c(C)o1` (stereo not drawn): the EC50 in the assay with BJ [3] is > 150 µM (not active); in the assay with BJ [4], 8.45 µM (active); in assay [5], 14.7 µM (active); at Protein RecA, 3.29 µM (active); in the assay with BJ [6], 17.7 µM (active); with BJ [7], 25.5 µM (active). Also, the AC50 in assay [14] is 10.3 µM (active).

As to `Cc1ccc(-c2nc3sc(C#N)c(N)n3c(=O)c2C#N)cc1`, the EC50 in [15] was > 160 µM (inactive); in [11], > 99 µM (inactive); in assay [12], > 99 µM (inactive); in assay [16] it was 1.72 µM (active).

Regarding `COc1ccc(-c2nc(CN3CCC(C(=O)NC4CCCc5ccccc54)CC3)c(C)o2)cc1OC` (stereo not drawn), the EC50 on Mu-type opioid receptor is 20.8 µM (inactive); in assay [8], > 92.4 µM (inactive); in [9], > 92.4 µM (inactive).
